Series [1] relates to yeast strain JBEI-9009. The series is classed as cell-based. Here is the method: Next, in order to test the feasibility of C5/C6 sugar cofermentation and thus to further improve the economic feasibility of the process,(22) the yeast strain JBEI-9009, developed in our lab for optimized xylose consumption,(30) was used for further experiments.
(§1) The effect of DES-Ch12 supplementation on growth and carbon utilization of JBEI-9009 was analyzed in a plate reader-based assay. […] To test if the presence of DES-Ch12 in the media impairs the ability of the strain JBEI-9009 to efficiently utilize xylose, the strain was cultivated in CSM media with 2 wt % xylose containing 10 wt % Ch12 and final samples were taken for HPLC measurements.

In series [2] the test system is unmodified control strain. The series is classed as cell-based, yeast. Here is the method:
as §1

The subject of series [3] is yeast. The following applies: cited from earlier work.

The values that follow come from patent publication US20200216863A1, “Use of renewable deep eutectic solvents in a one-pot process for a biomass” (National Technology & Engineering Solutions of Sandia, LLC, priority 2019, published 2020).

Consider [Ch][Cl]-2glycerol [Ch12], for which the growth tolerance entry in series [1] and in series [2] was “without showing significant growth limitations” throughout. In series [1], the lag phase entry is “longer lag phase”.
As to `O=Cc1ccc(CO)o1` [HMF, hydroxymethylfurfural], in series [3], the “concentration with significant inhibition of yeast growth” value was 3000 µg/mL and the “ethanol yield in presence of inhibitor” value is 89%.
As for `O=C(O)c1ccccc1` [Benzoic acid], the “concentration required for inhibition of yeast growth” value in series [3] is approximately 1000 µM.
With `O=C(O)/C=C/c1ccc(O)cc1` [p-coumaric acid], the “concentration required for inhibition of yeast growth” value in series [3] was approximately 1000 µM.
